From US10772886B2, “CXCR-2 inhibitors for treating crystal arthropathy disorders” (ARDEA BIOSCIENCES, INC., priority 2016, dated 2020)

Tests used:
[1] = system: rat air pouch model of crystal-induced arthropathy (MSU); test: Rat air pouch model of crystal-induced arthropathy, Example 4 (Compound 2); format: in vivo
Protocol: Sodium hydroxide (40 g, Fisher Scientific) was dissolved in de-ionized water (100 mL, dH2O) to provide a 10N solution. Uric acid (16 g, Sigma) was added to de-ionized water (3400 mL) containing sodium hydroxide solution (11.8 mL, 10N) and heated to 60° C. with constant stirring. […] The resulting clear solution was cooled to 4-8° C., resulting in the formation of crystals, which were isolated by filtration, washed three times with de-ionized wa[…]) and dried at 37° C. The dried mono sodium urate crystals were sifted into an air-tight container for storage. […] Methylcellulose (0.4 g, Sigma) was dissolved in de-ionized water (100 mL) to provide a 0.4% solution used as vehicle. […] Test compounds were suspended in vehicle to provide the desired concentrations, and diluted accordingly. […] Male Sprague-Dawley rats (Charles River Laboratories, 160-180 g) were received, individually examined and housed in cages of five rats each. The animals were in apparent good health with no clinical signs of disease or distress. The rats were placed in quarantine with daily inspections, ear notched for identification purposes and shaved at the nape of the neck. The rats were anesthetized (isoflurane), and the nape of the neck was cleansed with 70% isopropanol (Butler Animal Health Supply) followed by povidone-iodine solution (Ricca Chemical Co.). […] The rats were returned to routine housing with no adverse reactions observed. The rats were weighed and sorted into treatment groups based on average body weight. As appropriate, the rats were dosed orally with test compound or vehicle (saline alone). […] Thirty minutes after SC injection or two hours after PO dosing, MSU (15 mL) was injected into the air pouch using an 18 G×2 inch needle fitted to a 20 mL syringe. Control group was injected with 15 mL sterile saline (vehicle). The injection sites were closed (collodion, Macron) and the rats returned to their cages with no adverse effects observed. Four hours after MSU/saline injection, the rats were anesthetized and heparinized saline (5 mL, 10 U/mL) was injected into the air pouch. […] An aliquot of the exudate was transferred to green Eppendorf tubes for total white blood cell (WBC) measurement. After allowing the MSU crystals to settle out for ten minutes, an aliquot of the exudate was transferred to heparinized microtainer tubes (Becton Dickinson) for differential white blood cell counts. The remainder of the exudate was centrifuged and an aliquot of the supernatants was dispensed to labeled clear Eppendorf tubes and stored at -80° C. The rats were exsanguinated into pre-chilled serum separator tubes, processed to serum, and 0.5 mL aliquot was stored at -80° C. in labeled Eppendorf tubes. […] [table]

[2] = system: rat air pouch model of crystal-induced arthropathy (MSU); test: Rat air pouch model, Example 5 (Compound 2 in combination with colchicine); format: in vivo
Protocol: Sodium hydroxide (40 g, Fisher Scientific) was dissolved in de-ionized water (100 mL, dH2O) to provide a 10N solution. Uric acid (16 g, Sigma) was added to de-ionized water (3400 mL) containing sodium hydroxide solution (11.8 mL, 10N) and heated to 60° C. with constant stirring. […] The resulting clear solution was cooled to 4-8° C., resulting in the formation of crystals, which were isolated by filtration, washed three times with de-ionized wa[…]) and dried at 37° C. The dried mono sodium urate crystals were sifted into an air-tight container for storage. […] Methylcellulose (0.4 g, Sigma) was dissolved in de-ionized water (100 mL) to provide a 0.4% solution used as vehicle. […] Test compounds were suspended in vehicle to provide the desired concentrations, and diluted accordingly. […] Male Sprague-Dawley rats (Charles River Laboratories, 160-180 g) were received, individually examined and housed in cages of five rats each. The animals were in apparent good health with no clinical signs of disease or distress. The rats were placed in quarantine with daily inspections, ear notched for identification purposes and shaved at the nape of the neck. The rats were anesthetized (isoflurane), and the nape of the neck was cleansed with 70% isopropanol (Butler Animal Health Supply) followed by povidone-iodine solution (Ricca Chemical Co.). Sterile air (30 mL, 0.2 μm, Millipore) was injected subcutaneously using a 23 G×11⁄2 inch needle fixed to a 30 mL syringe. The rats were returned to routine housing with no adverse reactions observed. The rats were anesthetized (isoflurane), and the nape of the neck was cleansed with 70% isopropanol (Butler Animal Health Supply) followed by povidone-iodine solution (Ricca Chemical Co.). Sterile air (15 mL, 0.11 μm, Millipore) was injected subcutaneously using a 23 G×11⁄2 inch needle fixed to a 20 mL syringe. The rats were returned to routine housing with no adverse reactions observed. The rats were weighed and sorted into treatment groups based on average body weight. As appropriate, the rats were dosed orally with test compound or vehicle (saline alone). […] Thirty minutes after SC injection or two hours after PO dosing, MSU (15 mL) was injected into the air pouch using an 18 G×2 inch needle fitted to a 20 mL syringe. Control group was injected with 15 mL sterile saline (vehicle). The injection sites were closed (collodion, Macron) and the rats returned to their cages with no adverse effects observed. Four hours after MSU/saline injection, the rats were anesthetized and heparinized saline (5 mL, 10 U/mL) was injected into the air pouch. […] An aliquot of the exudate was transferred to green Eppendorf tubes for total white blood cell (WBC) measurement. After allowing the MSU crystals to settle out for ten minutes, an aliquot of the exudate was transferred to heparinized microtainer tubes (Becton Dickinson) for differential white blood cell counts. The remainder of the exudate was centrifuged and an aliquot of the supernatants was dispensed to labeled clear Eppendorf tubes and stored at -80° C. The rats were exsanguinated into pre-chilled serum separator tubes, processed to serum, and 0.5 mL aliquot was stored at -80° C. in labeled Eppendorf tubes. […] 90 rats were used, divided into 9 groups of 10 animals, as follows: [table]

[3] = 0.3 umol/kg PO + Colchicine 0.001 mpk SC, Group 6
[4] = 0.3 umol/kg PO + Colchicine 0.1 mpk SC, Group 8
[5] = 3.0 umol/kg PO + Colchicine 0.001 mpk SC, Group 7
[6] = 3.0 umol/kg PO + Colchicine 0.1 mpk SC, Group 9

## CC[C@@H](Nc1c(Nc2cccc(C(=O)N(C)C)c2O)c(=O)c1=O)c1ccc(C)o1 [Compound 2, (R)-2-hydroxy-N,N-dimethyl-3-((2-((1-(5-methylfuran-2-yl)propyl)amino)-3,4-dioxocyclobut-1-en-1-yl)amino)benzamide]
[1]; 0.3 mg/kg PO, Group 4
  Avg Exudate Vol: 10.1 mL
  Avg Total WBC: 145.2 ×10^6
  Neutrophils: 114.2 ×10^6
[1]; 3 mg/kg PO, Group 5
  Avg Exudate Vol: 9.3 mL
  Avg Total WBC: *33.4 ×10^6
  Neutrophils: *19.8 ×10^6
[1]; 30 mg/kg PO, Group 6
  Avg Exudate Vol: ***6.8 mL
  Avg Total WBC: *51.7 ×10^6
  Neutrophils: **16.0 ×10^6
[2]; [3]
  Avg Exudate Vol: 9.6 mL
  Avg Total WBC: 337 ×10^6
  Neutrophils: 246 ×10^6
[2]; [4]
  Avg Exudate Vol: 7.9 mL
  Avg Total WBC: 153 ×10^6
  Neutrophils: 123 ×10^6
[2]; 0.3 umol/kg PO, Group 4
  Avg Exudate Vol: 9.8 mL
  Avg Total WBC: 365 ×10^6
  Neutrophils: 268 ×10^6
[2]; [5]
  Avg Exudate Vol: 8 mL
  Avg Total WBC: 88 ×10^6
  Neutrophils: 26.7 ×10^6
[2]; [6]
  Avg Exudate Vol: 7.5 mL
  Avg Total WBC: 76.8 ×10^6
  Neutrophils: 27.2 ×10^6
[2]; 3.0 umol/kg PO, Group 5
  Avg Exudate Vol: 7.0 mL
  Avg Total WBC: 78.6 ×10^6
  Neutrophils: 16 ×10^6

## COc1cc2c(c(OC)c1OC)-c1ccc(OC)c(=O)cc1[C@@H](NC(C)=O)CC2 [Colchicine, COLCHICINE, reference compound]
[1]; 1 mg/kg SC, Group 3
  Avg Exudate Vol: ***6.4 mL
  Avg Total WBC: **17.6 ×10^6
  Neutrophils: **11.0 ×10^6
[2]; 0.1 mpk (PO), Group 3
  Avg Exudate Vol: 9.7 mL
  Avg Total WBC: 221 ×10^6
  Neutrophils: 163 ×10^6
